Data reported in ChEMBL document CHEMBL5338775, “Discovery of a Novel Class of PROTACs as Potent and Selective Estrogen Receptor α Degraders to Overcome Endocrine-Resistant Breast Cancer In Vitro and In Vivo” (J Med Chem, 2023).
Calls of active or inactive are those of the source. No cut-off for these calls is given here. Residues, ends and D or L forms follow the SMILES beside them. *: point of attachment. Cbz = O=C(OCc1ccccc1)*

Legend:
[1] = target: T1, von Hippel-Lindau disease tumor suppressor/Estrogen receptor (Homo sapiens) (UniProt P03372+P40337); assay: PROTAC activity at VHL/ERalpha in ER-positive human tamoxifen-resistant LCC2 cells assessed as induction of ERalpha degradation at 2 uM incubated for 12 hrs by Western blot analysis; assay type: cell-based; conditions: tamoxifen-resistant LCC2 cell
MCF7 [2] = assay: cells; conditions: Homo sapiens, MCF7, 72 h
[3] = target: T1, von Hippel-Lindau disease tumor suppressor/Estrogen receptor (Homo sapiens); assay: PROTAC activity at VHL/wild type ERalpha in ER-positive human T47D cells assessed as induction of ERalpha degradation at 2 uM incubated for 12 hrs by Western blot analysis; assay type: cell-based
Estrogen receptor = target: T2, Estrogen receptor (Homo sapiens, UniProt P03372)
T2 sequence (P03372 whole entry): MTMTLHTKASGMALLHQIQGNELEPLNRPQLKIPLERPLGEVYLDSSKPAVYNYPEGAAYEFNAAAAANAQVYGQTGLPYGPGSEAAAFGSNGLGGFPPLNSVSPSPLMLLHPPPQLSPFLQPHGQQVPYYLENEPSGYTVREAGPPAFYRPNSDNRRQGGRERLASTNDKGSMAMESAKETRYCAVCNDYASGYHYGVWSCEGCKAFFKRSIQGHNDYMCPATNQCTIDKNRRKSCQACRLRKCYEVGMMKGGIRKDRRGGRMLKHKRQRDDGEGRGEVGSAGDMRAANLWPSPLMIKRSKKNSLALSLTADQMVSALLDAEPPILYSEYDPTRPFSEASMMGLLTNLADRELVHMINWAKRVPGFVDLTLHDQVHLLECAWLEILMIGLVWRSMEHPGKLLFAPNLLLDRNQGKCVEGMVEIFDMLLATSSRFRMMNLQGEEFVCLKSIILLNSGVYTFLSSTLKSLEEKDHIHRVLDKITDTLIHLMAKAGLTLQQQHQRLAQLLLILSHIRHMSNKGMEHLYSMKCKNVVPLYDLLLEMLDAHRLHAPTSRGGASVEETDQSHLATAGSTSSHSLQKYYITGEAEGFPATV

MDA-MB-231 = assay: cells; conditions: Homo sapiens, MDA-MB-231, 72 h
[4] = Selectivity index, ratio of Ki for ERalpha (unknown origin) to Ki for ERbeta (unknown origin)
T47D [5] = assay: cells; conditions: Homo sapiens, 72 h
T47D [6] = assay: cells; conditions: Homo sapiens, 72 h; remark: listed apart in the source
cells = conditions: Homo sapiens, Tamoxifen-resistant LCC2 cell, 72 h
[7] = target: T1, von Hippel-Lindau disease tumor suppressor/Estrogen receptor (Homo sapiens); assay: PROTAC activity at VHL/wild type ERalpha in ER-positive human MCF7 cells assessed as induction of ERalpha degradation at 1 uM incubated for 12 hrs by Western blot analysis; assay type: cell-based
Estrogen receptor beta [8] = target: T3, Estrogen receptor beta (Homo sapiens, UniProt Q92731); assay: Binding affinity to ERbeta (unknown origin) assessed as relative binding affinity incubated for 2 hrs by fluorescence polarization assay relative to estradiol
Estrogen receptor beta [9] = target: T3, Estrogen receptor beta
T47D [10] = assay: cells; conditions: Homo sapiens, 72 h; remark: listed apart in the source
in vitro = conditions: human, MCF-10A cells
[11] = Selectivity ratio of relative binding affinity for ERalpha (unknown origin) to relative binding affinity to ERbeta (unknown origin)
[12] = target: T1, von Hippel-Lindau disease tumor suppressor/Estrogen receptor (Homo sapiens); assay: PROTAC activity at VHL/ERalpha in ER-positive human MCF7 cells assessed as induction of ERalpha degradation at 1 to 5 uM incubated for 12 hrs by Western blot analysis; assay type: cell-based; conditions: dose 1-5 µM
[13] = target: T4, Estrogen receptor (Homo sapiens) (UniProt P03372); assay: Induction of ERalpha degradation in ER-positive human MCF7 cells at 1 uM incubated for 12 hrs by Western blot analysis; assay type: cell-based
T4 sequence (whole entry): T2 sequence (P03372 whole entry)

[14] = target: T4, Estrogen receptor (Homo sapiens); assay: Induction of ERalpha degradation in ER-positive human MCF7 cells at 1 uM incubated for 12 hrs in presence of N-ethyl-5,6-bis(4-hydroxyphenyl)-N-(4-methoxyphenyl)-7-oxabicyclo[2.2.1]hept-5-ene-2-sulfonamide by Western blot analysis; assay type: cell-based
Estrogen receptor beta [15] = target: T3, Estrogen receptor beta; assay: Induction of ERbeta degradation in human NCI-H1975 cells at 1 to 10 uM incubated for 12 hrs by Western blot analysis; assay type: cell-based; conditions: dose 1-10 µM
[16] = target: T4, Estrogen receptor (Homo sapiens); assay: Induction of ERalpha degradation in ER-positive human MCF7 cells at 1 to 10 uM incubated for 12 hrs by Western blot analysis; assay type: cell-based; conditions: dose 1-10 µM
[17] = target: T4, Estrogen receptor (Homo sapiens); assay: Induction of ERalpha degradation in ER-positive human MCF7 cells at 1 uM incubated for 12 hrs in presence of (2S,4R)-1-[(2S)-2-amino-3,3-dimethylbutanoyl]-4-hydroxy-N-[(1S)-1-[4-(4-methyl-1,3-thiazol-5-yl)phenyl]ethyl]pyrrolidine-2-carboxamide by Western blot analysis; assay type: cell-based
MCF7 [18] = assay: Antitumor activity against human tamoxifen-sensitive MCF7 cells xenografted in BALB/c nude mouse assessed as increase in tumor necrosis area at 5 micromol/kg, ip administered once every 2 days by […] staining based analysis; assay type: functional, organism-based; conditions: dose 5.0 µmol/kg
Mus musculus = assay: In vivo protac activity at VHL/ERalpha in BALB/c nude mouse xenografted with human tamoxifen-sensitive MCF7 cells assessed as reduction in ERalpha protein levels in tumor at 5 micromol/kg, ip administered once every 2 days by Western blot analysis; assay type: functional, organism-based; conditions: dose 5.0 µmol/kg
T47D [19] = assay: Inhibition of gene transcription in human T47D cells assessed as reduction in Pol II occupancy at IGFBP4 promoter region by ChIP-seq analysis; assay type: functional, cell-based
T47D [20] = assay: Inhibition of nascent GREB1 RNA synthesis in human T47D cells incubated for 6 hrs by 4-thiouridine incorporation assay; assay type: functional, cell-based
T47D [21] = assay: Inhibition of nascent IGFBP4 RNA synthesis in human T47D cells incubated for 6 hrs by 4-thiouridine incorporation assay; assay type: functional, cell-based
T47D [22] = assay: Inhibition of gene transcription in human T47D cells assessed as reduction in H3K27ac levels in GREB1 promoter region by ChIP-seq analysis; assay type: functional, cell-based
MCF7 [23] = assay: Antitumor activity against human tamoxifen-sensitive MCF7 cells xenografted in BALB/c nude mouse assessed as inhibition of tumor growth at 5 micromol/kg, ip administered once every 2 days and measured every 2 days; assay type: functional, organism-based; conditions: dose 5.0 µmol/kg
T47D [24] = assay: Inhibition of gene transcription in human T47D cells assessed as reduction in Pol II occupancy at GREB1 promoter region by ChIP-seq analysis; assay type: functional, cell-based
[25] = target: T4, Estrogen receptor (Homo sapiens); assay: Inhibition of ERalpha binding to DNA in human T47D cells assessed as reduction in protein occupancy incubated for 6 hrs by ChIP-seq analysis; assay type: cell-based
T47D [26] = assay: Inhibition of gene transcription in human T47D cells assessed as reduction in H3K27ac levels in IGFBP4 promoter region by ChIP-seq analysis; assay type: functional, cell-based
MCF7 [27] = assay: Antitumor activity against human tamoxifen-sensitive MCF7 cells xenografted in BALB/c nude mouse assessed as reduction in cell proliferation at 5 micromol/kg, ip administered once every 2 days by ki67 staining based analysis; assay type: functional, organism-based; conditions: dose 5.0 µmol/kg
[28] = target: T4, Estrogen receptor (Homo sapiens); assay: Induction of ERalpha degradation in ER-positive human MCF7 cells at 5 uM incubated for 12 hrs by Western blot analysis; assay type: cell-based
[29] = target: T4, Estrogen receptor (Homo sapiens); assay: Induction of ERalpha degradation in ER-positive human MCF7 cells at 10 uM incubated for 12 hrs by Western blot analysis; assay type: cell-based
Estrogen receptor beta [30] = target: T3, Estrogen receptor beta; assay: Induction of ERbeta degradation in human NCI-H1975 cells at 10 uM incubated for 12 hrs by Western blot analysis; assay type: cell-based

T1 sequence (P40337 whole entry, looked up, one chain of several): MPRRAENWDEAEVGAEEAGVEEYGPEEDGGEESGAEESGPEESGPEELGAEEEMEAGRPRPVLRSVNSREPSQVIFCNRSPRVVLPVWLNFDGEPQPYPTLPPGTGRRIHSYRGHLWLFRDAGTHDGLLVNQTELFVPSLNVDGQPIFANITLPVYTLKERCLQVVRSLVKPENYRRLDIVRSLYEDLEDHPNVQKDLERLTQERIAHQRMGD
T3 sequence (Q92731 whole entry): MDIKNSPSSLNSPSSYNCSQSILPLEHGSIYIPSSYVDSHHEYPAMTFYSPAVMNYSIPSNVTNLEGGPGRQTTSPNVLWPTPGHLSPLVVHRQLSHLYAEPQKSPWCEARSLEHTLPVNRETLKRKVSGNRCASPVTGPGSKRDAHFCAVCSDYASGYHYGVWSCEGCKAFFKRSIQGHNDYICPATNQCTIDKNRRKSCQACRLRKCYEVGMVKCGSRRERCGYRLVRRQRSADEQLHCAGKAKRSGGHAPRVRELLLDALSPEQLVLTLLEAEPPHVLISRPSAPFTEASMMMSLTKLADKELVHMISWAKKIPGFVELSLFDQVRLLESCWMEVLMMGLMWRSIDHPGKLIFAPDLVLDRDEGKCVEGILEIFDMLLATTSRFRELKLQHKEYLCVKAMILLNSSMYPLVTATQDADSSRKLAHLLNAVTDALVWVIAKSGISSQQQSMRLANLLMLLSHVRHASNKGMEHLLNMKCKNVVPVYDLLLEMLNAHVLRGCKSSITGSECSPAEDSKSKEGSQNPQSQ

Compound	IC50 (MCF7 [2]) [nM]	Ki (Estrogen receptor) [nM]	IC50 (MDA-MB-231) [µM]	Ratio Ki [4]	IC50 (T47D [5]) [µM]	IC50 (T47D [6]) [µM]	IC50 (cells) [µM]	RBA (Estrogen receptor beta [8]) [%]	Ki (Estrogen receptor beta [9]) [µM]	IC50 (T47D [10]) [µM]	IC50 at 72 h (in vitro) [µM]	Selectivity ratio [11]	also measured
CCN(c1ccc(OCCCCCC(=O)N[C@H](C(=O)N2C[C@H](O)C[C@H]2C(=O)NCc2ccc(-c3scnc3C)cc2)C(C)(C)C)cc1)S(=O)(=O)C1CC2OC1C(c1ccc(O)cc1)=C2c1ccc(O)cc1 (some centres undefined)	1610	1850	> 100	5.32	0.76	1.78	14.2	0.08	9.83	0.73	5.17	1.38	Activity [1]: Active; Activity [3]: Active; Activity [7]: Active
Cc1ncsc1-c1ccc([C@H](C)NC(=O)[C@@H]2C[C@H](O)CN2C(=O)[C@@H](NC(=O)CCCCCOc2ccc(N(CC(F)(F)F)S(=O)(=O)C3CC4OC3C(c3ccc(O)cc3)=C4c3ccc(O)cc3)cc2)C(C)(C)C)cc1 (some centres undefined)	> 50000	2540	> 100	6.2	> 50	> 50	> 50	0.05	15.7	> 50	> 100	1.6	Activity [12]: inactive
Cc1ncsc1-c1ccc([C@H](C)NC(=O)[C@@H]2C[C@@H](O)CN2C(=O)[C@@H](N)C(C)(C)C)cc1	–	–	–	–	–	–	–	–	–	–	–	–	Activity [13]: inactive; Activity [14]: inactive
CCN(c1ccc(OC)cc1)S(=O)(=O)C1CC2OC1C(c1ccc(O)cc1)=C2c1ccc(O)cc1 (centres undefined)	–	190	–	13.1	–	–	–	0.31	2.54	–	–	3.39	Activity [13]: inactive; Activity (Estrogen receptor beta [15]): inactive; Activity [16]: inactive; Activity [17]: inactive
Cc1ncsc1-c1ccc(CNC(=O)[C@@H]2C[C@@H](O)CN2C(=O)[C@@H](NC(=O)CCCCCOc2ccc(N(CC(F)(F)F)S(=O)(=O)C3CC4OC3C(c3ccc(O)cc3)=C4c3ccc(O)cc3)cc2)C(C)(C)C)cc1 (some centres undefined)	110	2900	> 100	6.78	12.6	9.28	13	0.04	19.7	11.3	1.35	1.75	Activity [1]: Active; Activity [3]: Active; Activity [7]: Active
C[C@]12CC[C@@H]3c4ccc(O)cc4C[C@@H](CCCCCCCCC[S+]([O-])CCCC(F)(F)C(F)(F)F)[C@H]3[C@@H]1CC[C@@H]2O (some centres undefined) [FULVESTRANT]	330	–	> 100	–	1.76	2.21	11.8	–	–	3.92	–	–	Activity (MCF7 [18]): Active; Activity (Mus musculus): Active; inhibition (T47D [19]): Active; inhibition (T47D [20]): Active; inhibition (T47D [21]): Active; inhibition (T47D [22]): Active; inhibition (MCF7 [23]): Active; inhibition (T47D [24]): Active; inhibition [25]: Active; inhibition (T47D [26]): Active; Activity (MCF7 [27]): Active
CCN(c1ccc(OCCCCCC(=O)N[C@H](C(=O)N2C[C@@H](O)C[C@H]2C(=O)N[C@@H](C)c2ccc(-c3scnc3C)cc2)C(C)(C)C)cc1)S(=O)(=O)C1CC2OC1C(c1ccc(O)cc1)=C2c1ccc(O)cc1 (some centres undefined)	> 50000	1560	> 100	3.15	> 50	> 50	> 50	0.16	4.91	> 50	> 100	0.81	Activity [12]: inactive
CC/C(=C(\c1ccccc1)c1ccc(OCCN(C)C)cc1)c1ccccc1	–	–	–	–	–	–	–	–	–	–	–	–	Activity (MCF7 [18]): Active; Activity (Mus musculus): inactive; inhibition (MCF7 [23]): Active; Activity (MCF7 [27]): Active
CC(C)C[C@@H](C=O)NC(=O)[C@H](CC(C)C)NC(=O)[C@H](CC(C)C)NC(=O)OCc1ccccc1 (Cbz-Leu-Leu-Leu-aldehyde)	–	–	–	–	–	–	–	–	–	–	–	–	Activity [28]: inactive
COc1ccc(N(CC(F)(F)F)S(=O)(=O)C2CC3OC2C(c2ccc(O)cc2)=C3c2ccc(O)cc2)cc1 (centres undefined)	–	–	–	–	–	–	–	–	–	–	–	–	Activity [29]: Active; Activity (Estrogen receptor beta [30]): Active
COc1ccc(N(CC(F)(F)F)S(=O)(=O)C2CC3OC2C(c2ccc(OCCCCCC(=O)N[C@H](C(=O)N4C[C@H](O)C[C@H]4C(=O)N[C@@H](C)c4ccc(-c5scnc5C)cc4)C(C)(C)C)cc2)=C3c2ccc(O)cc2)cc1 (some centres undefined)	> 10000	2540	> 100	10.3	> 30	> 30	> 30	0.03	26.2	> 30	> 100	2.67	Activity [7]: inactive
